Reference: patent US9371265B2, “Compositions and methods related to inhibitors of JAK kinase” (EP PHARMA, INC., priority 2012, dated 2016)

Experiments:
panel of protein kinases = assay: Protein kinase panel profiling (whole panel); assay type: biochemical; details: 10 μM EP009
Procedure: (§1) Achieving JAK3 selectivity remains a significant challenge in the development of new small molecules for the treatment of cancer and immune-derived diseases. As such, the inventors employed cell-based screening assays of small-molecule libraries based upon the chemical scaffold of the established JAK3 inhibitor NC1153 (Stepkowski et al., J Immunol. (2005), 175(7):4236-4246) EP009 (FIG. 2A) was selected as a lead compound due to improved intrinsic stability (>95% purity in various solvents at 37° C. for 24 hours; FIG. 3) and high-degree of JAK3 selectivity. To test JAK3 versus JAK2 specificity of EP009, the IL-2/JAK3-dependent Kit225, and IL-3/JAK2-dependent BaF/3 cell lines were used. Kit225 and BaF/3 cells growing in the presence of IL-2 or IL-3, respectively, were treated with ascending concentrations of EP009 for 12 hours and cellular JAK3 and JAK2 tyrosine phosphorylation levels detected by Western blot analysis (FIGS. 2B and 2C). Following densitometric analysis, EP009 was determined to dose-dependently reduce IL-2-mediated JAK3 tyrosine phosphorylation with a cellular 50% inhibitory concentration (IC50) between 10 and 20 μM (FIG. 2B). […] To globally evaluate specificity, the inhibitory activity of EP009 was measured against a panel of protein kinases distributed throughout the kinome using the scanEDGE profiling service (KINOMEscan). […]

CREB = assay: Phospho-CREB in SU-DHL-1 cells (Luminex multiplex); assay type: cell-based, human; details: 24 hours
Procedure: FIGS. 8A-8F. Effect of EP009 on ALCL cells is mediated through selective activation of ERK1/2 and JNK1/2 stress signaling pathways, and inhibition of p70 S6 kinase growth signaling pathways. SU-DHL-1 cells were treated with vehicle (PBS) or increasing amounts of EP009 (0-50 μM) for 24 hours. Cells were then lysed, clarified, and subjected to Luminex multiplex analysis to detect phosphorylated (A) ERK1/2, (B) JNK1/2, (C) p70 S6 kinase, (D) IκBα, (E) CREB, and (F) p38. Values represent mean fluorescence intensity (MFI) normalized to corresponding GAPDH MFI, while error bars represent the standard deviation (n=2). Representative data from two independent experiments are shown. Statistical significance was determined using Student's t-test. (*, p<0.05).
The MILLIPLEX MAP 8-plex Multi-Pathway Signaling Phosphoprotein kit (Millipore) was used to detect phosphorylated ERK1/2 (Thr185/Tyr187), STAT3 (Ser727), JNK1/2 (Thr183/Tyr185), p70 S6 kinase (Thr412), IκBα (Ser32), STAT5A/B (Tyr694/699), CREB (Ser133), and p38 (Thr180/Tyr182). The MILLIPLEX MAP 5-plex STAT Phosphoprotein kit (Millipore) was used to detect phosphorylated STAT1 (Tyr701), STAT2 (Tyr690), STAT3 (Tyr705), STAT5A/B (Tyr694/699), and STAT6 (Tyr641). The MILLIPLEX MAP Human Apoptosis 3-plex kit (Millipore) was used to detect cleaved PARP, cleaved Caspase 3, and total GAPDH for protein normalization.

AKT2 = AKT2 (Homo sapiens, UniProt P31751); assay: Kinase panel: AKT2; assay type: biochemical; details: 10 μM EP009
Procedure: as §1

ALK = ALK (Homo sapiens, UniProt Q9UM73); assay: Kinase panel: ALK; assay type: biochemical; details: 10 μM EP009
Sequence of ALK (Q9UM73 19-1620): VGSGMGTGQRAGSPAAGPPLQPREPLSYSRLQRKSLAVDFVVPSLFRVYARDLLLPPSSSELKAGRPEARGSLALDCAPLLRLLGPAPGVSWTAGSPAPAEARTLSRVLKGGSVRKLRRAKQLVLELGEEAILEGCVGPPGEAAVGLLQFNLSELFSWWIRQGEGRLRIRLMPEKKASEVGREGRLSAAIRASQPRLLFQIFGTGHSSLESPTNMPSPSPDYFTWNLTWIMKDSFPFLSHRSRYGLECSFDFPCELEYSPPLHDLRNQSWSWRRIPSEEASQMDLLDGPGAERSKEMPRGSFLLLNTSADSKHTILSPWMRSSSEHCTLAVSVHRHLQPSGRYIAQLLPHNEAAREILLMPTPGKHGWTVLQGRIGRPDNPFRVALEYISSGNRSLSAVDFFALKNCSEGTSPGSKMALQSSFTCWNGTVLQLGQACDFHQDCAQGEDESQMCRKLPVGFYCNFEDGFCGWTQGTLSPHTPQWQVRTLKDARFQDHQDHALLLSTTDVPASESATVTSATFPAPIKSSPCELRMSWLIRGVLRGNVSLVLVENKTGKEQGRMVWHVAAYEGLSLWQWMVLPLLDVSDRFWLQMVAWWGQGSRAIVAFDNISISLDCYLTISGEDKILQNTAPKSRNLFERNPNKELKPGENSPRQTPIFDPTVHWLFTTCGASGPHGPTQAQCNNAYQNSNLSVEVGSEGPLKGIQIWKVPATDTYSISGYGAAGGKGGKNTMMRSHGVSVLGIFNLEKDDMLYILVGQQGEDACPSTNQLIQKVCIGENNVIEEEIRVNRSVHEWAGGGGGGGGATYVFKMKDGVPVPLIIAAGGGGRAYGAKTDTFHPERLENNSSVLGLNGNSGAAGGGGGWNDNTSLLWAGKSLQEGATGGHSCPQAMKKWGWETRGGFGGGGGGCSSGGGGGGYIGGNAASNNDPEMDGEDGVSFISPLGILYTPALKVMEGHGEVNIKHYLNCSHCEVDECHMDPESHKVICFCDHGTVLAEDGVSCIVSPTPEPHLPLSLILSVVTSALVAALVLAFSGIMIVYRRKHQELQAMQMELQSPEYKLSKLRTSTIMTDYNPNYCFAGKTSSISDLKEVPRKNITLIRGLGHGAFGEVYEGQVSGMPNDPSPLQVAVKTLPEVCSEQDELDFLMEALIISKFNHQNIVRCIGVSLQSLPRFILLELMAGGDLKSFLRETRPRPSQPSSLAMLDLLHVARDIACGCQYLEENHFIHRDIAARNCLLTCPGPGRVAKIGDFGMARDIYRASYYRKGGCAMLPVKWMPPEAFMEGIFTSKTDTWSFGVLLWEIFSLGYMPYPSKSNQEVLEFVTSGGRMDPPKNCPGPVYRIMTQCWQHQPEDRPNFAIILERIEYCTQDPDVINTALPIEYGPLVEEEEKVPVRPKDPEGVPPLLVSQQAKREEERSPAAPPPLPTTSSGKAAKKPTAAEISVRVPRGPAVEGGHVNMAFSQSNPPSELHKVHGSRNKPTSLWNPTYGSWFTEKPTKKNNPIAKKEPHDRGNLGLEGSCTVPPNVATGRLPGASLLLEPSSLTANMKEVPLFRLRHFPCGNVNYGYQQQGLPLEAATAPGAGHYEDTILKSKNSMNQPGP
Procedure: as §1

BRAF(V600E) = BRAF(V600E) (Homo sapiens, UniProt P15056, V600E); assay: Kinase panel: BRAF(V600E); assay type: biochemical; details: 10 μM EP009
Procedure: as §1

CHEK1 = CHEK1 (Homo sapiens, UniProt O14757); assay: Kinase panel: CHEK1; assay type: biochemical; details: 10 μM EP009
Sequence of CHEK1 (O14757 whole entry): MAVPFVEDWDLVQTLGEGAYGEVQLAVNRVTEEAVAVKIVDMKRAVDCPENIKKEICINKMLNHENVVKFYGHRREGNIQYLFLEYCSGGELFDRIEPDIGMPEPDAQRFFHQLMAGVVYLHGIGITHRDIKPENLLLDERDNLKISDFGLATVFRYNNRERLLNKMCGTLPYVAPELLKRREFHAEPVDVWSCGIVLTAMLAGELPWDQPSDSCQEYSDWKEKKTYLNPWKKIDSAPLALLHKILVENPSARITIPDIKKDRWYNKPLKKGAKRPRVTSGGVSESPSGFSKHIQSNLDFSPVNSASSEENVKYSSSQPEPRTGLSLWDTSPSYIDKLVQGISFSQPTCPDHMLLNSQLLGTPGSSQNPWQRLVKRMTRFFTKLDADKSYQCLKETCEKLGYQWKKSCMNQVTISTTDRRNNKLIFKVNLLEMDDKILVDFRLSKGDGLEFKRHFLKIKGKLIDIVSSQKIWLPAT
Procedure: as §1

EGFR = EGFR (Homo sapiens, UniProt P00533); assay: Kinase panel: EGFR; assay type: biochemical; details: 10 μM EP009
Procedure: as §1

FAK = FAK (Homo sapiens, UniProt Q05397); assay: Kinase panel: FAK; assay type: biochemical; details: 10 μM EP009
Procedure: as §1

MET = MET (Homo sapiens, UniProt P08581); assay: Kinase panel: MET; assay type: biochemical; details: 10 μM EP009
Procedure: as §1

PAK2 = PAK2 (Homo sapiens, UniProt Q13177); assay: Kinase panel: PAK2; assay type: biochemical; details: 10 μM EP009
Procedure: as §1

PAK4 = PAK4 (Homo sapiens, UniProt O96013); assay: Kinase panel: PAK4; assay type: biochemical; details: 10 μM EP009
Procedure: as §1

PDPK1 = PDPK1 (Homo sapiens, UniProt O15530); assay: Kinase panel: PDPK1; assay type: biochemical; details: 10 μM EP009
Sequence of PDPK1 (O15530 whole entry): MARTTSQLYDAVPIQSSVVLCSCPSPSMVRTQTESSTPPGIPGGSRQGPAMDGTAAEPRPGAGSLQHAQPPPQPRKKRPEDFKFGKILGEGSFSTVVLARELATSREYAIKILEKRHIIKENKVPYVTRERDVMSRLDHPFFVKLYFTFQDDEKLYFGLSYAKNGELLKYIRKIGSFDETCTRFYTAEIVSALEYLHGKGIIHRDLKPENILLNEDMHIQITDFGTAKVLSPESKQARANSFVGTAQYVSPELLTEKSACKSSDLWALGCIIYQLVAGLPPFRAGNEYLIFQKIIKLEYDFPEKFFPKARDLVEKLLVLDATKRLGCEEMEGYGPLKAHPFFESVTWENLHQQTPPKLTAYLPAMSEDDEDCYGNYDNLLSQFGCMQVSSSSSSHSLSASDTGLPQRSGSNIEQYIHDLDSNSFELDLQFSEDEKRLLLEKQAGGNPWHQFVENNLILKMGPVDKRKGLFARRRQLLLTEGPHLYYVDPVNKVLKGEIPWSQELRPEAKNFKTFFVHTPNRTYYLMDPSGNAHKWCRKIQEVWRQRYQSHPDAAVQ
Procedure: as §1

PRKCE = PRKCE (Homo sapiens, UniProt Q02156); assay: Kinase panel: PRKCE; assay type: biochemical; details: 10 μM EP009
Procedure: as §1

SNARK = SNARK (Homo sapiens, UniProt Q9H093); assay: Kinase panel: SNARK; assay type: biochemical; details: 10 μM EP009
Sequence of SNARK (Q9H093 whole entry): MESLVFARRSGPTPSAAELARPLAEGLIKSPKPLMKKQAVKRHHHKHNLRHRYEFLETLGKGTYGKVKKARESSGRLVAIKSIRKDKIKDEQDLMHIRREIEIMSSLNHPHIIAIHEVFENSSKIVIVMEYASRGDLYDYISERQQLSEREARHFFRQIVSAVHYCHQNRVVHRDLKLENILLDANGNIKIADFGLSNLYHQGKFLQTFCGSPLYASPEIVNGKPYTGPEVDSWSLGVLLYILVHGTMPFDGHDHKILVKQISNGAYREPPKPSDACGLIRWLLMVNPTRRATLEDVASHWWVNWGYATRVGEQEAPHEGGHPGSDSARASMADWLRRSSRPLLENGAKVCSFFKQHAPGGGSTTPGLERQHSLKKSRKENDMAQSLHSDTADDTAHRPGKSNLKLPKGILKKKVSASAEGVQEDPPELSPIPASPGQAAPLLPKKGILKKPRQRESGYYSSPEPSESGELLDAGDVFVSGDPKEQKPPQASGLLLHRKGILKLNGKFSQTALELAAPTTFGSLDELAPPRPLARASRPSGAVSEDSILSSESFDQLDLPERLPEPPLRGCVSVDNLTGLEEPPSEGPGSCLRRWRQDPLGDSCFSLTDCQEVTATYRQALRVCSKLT
Procedure: as §1

TRKA = TRKA (Homo sapiens, UniProt P04629); assay: Kinase panel: TRKA; assay type: biochemical; details: 10 μM EP009
Sequence of TRKA (P04629 33-796): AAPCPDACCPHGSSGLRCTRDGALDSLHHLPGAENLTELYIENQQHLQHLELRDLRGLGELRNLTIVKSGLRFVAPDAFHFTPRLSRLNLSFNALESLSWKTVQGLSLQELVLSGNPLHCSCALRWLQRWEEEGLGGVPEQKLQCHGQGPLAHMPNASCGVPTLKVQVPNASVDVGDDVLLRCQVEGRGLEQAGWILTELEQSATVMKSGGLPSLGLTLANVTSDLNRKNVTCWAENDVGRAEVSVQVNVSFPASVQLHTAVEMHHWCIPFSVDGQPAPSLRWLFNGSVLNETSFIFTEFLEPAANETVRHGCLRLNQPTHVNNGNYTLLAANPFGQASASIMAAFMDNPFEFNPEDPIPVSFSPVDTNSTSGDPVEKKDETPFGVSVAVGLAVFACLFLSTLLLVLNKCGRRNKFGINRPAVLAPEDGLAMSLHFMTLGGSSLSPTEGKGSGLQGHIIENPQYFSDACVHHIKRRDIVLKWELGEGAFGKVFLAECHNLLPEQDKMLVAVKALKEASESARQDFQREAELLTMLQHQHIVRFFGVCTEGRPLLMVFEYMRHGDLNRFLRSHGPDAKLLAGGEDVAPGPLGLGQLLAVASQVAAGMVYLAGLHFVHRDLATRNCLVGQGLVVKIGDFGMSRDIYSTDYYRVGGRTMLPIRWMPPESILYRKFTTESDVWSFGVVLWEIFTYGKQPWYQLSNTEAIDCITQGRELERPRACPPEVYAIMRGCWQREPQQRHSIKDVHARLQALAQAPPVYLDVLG
Procedure: as §1

ULK2 = ULK2 (Homo sapiens, UniProt Q8IYT8); assay: Kinase panel: ULK2; assay type: biochemical; details: 10 μM EP009
Sequence of ULK2 (Q8IYT8 whole entry): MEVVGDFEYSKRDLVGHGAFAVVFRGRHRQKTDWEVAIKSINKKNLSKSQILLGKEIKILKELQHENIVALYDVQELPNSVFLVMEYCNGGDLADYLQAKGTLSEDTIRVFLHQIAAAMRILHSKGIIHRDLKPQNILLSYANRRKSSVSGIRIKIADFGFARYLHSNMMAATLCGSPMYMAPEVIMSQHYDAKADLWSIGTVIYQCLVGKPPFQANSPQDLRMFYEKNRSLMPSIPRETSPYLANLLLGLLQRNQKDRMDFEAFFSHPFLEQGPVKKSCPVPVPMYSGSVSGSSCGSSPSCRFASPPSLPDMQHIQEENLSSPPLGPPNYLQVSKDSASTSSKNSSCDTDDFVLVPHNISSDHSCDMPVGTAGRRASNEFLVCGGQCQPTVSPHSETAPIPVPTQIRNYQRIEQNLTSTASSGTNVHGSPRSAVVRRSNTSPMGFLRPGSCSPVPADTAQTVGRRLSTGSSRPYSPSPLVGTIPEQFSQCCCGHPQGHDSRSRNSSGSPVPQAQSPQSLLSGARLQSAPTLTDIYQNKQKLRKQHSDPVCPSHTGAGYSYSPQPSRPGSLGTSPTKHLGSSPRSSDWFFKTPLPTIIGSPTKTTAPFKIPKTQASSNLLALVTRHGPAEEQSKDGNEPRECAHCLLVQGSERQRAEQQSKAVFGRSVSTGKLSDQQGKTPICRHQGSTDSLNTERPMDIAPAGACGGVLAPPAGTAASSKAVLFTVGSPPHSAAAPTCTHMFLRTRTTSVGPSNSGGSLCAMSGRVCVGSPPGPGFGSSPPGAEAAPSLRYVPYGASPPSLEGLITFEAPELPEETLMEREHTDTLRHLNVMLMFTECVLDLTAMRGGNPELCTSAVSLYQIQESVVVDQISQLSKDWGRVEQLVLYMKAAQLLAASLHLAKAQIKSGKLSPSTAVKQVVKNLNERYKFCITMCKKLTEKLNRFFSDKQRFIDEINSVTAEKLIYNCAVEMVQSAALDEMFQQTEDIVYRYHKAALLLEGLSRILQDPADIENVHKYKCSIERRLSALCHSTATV
Procedure: as §1

Which “inhibition against the kinases tested” value (panel of protein kinases) does the source give for `C=C1CCCCCCCCCC(CO)C1=O` (stereo not shown) [EP009, 2-(Hydroxymethyl)-12-methylenecyclododecanone] here?
Its value is under 50%.

And the CREB phosphorylation status (CREB)?
Its CREB phosphorylation status is “No statistically significant change”.

And the “Kinase Activity (% of Control)” value (AKT2)?
The value was 100 % of Control.

And the “Kinase Activity (% of Control)” value (ALK)?
Its value is 100 % of Control.

And the “Kinase Activity (% of Control)” value (BRAF(V600E))?
The value was 76 % of Control.

And the “Kinase Activity (% of Control)” value (CHEK1)?
Its value is 100 % of Control.

And the “Kinase Activity (% of Control)” value (EGFR)?
The value was 100 % of Control.

And the “Kinase Activity (% of Control)” value (FAK)?
Its value is 69 % of Control.

What about the “Kinase Activity (% of Control)” value (MET) of the same compound?
Its value is 89 % of Control.

And the “Kinase Activity (% of Control)” value (PAK2)?
Its value is 100 % of Control.

And the “Kinase Activity (% of Control)” value (PAK4)?
Its value is 100 % of Control.

And the “Kinase Activity (% of Control)” value (PDPK1)?
Its value is 100 % of Control.

What about the “Kinase Activity (% of Control)” value (PRKCE) of the same compound?
Its value is 100 % of Control.

And the “Kinase Activity (% of Control)” value (SNARK)?
Its value is 82 % of Control.

What about the “Kinase Activity (% of Control)” value (TRKA) of the same compound?
The value was 65 % of Control.

What about the “Kinase Activity (% of Control)” value (ULK2) of the same compound?
The value was 58 % of Control.
